Assay [1] deals with T1, Human CD73 (amino acid residues 27-549) (Homo sapiens, UniProt P21589).
T1 construct: Human CD73 (amino acid residues 27-549); His tag (N); made in house; host or cells: E. coli
T1 sequence (P21589 27-549): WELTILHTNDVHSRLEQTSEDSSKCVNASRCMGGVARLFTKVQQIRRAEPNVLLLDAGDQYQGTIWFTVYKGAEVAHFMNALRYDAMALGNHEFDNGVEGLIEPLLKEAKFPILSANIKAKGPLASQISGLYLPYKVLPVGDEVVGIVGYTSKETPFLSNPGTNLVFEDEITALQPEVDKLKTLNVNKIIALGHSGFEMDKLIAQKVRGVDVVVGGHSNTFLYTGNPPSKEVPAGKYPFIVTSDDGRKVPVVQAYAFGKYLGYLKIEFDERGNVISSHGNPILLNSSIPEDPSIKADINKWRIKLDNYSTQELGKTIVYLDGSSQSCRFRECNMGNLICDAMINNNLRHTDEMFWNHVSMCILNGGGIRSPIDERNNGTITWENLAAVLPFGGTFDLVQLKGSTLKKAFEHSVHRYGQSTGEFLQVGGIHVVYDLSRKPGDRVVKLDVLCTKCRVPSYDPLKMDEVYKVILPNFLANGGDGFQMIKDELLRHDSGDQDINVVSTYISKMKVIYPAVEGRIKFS
Briefly: CD73 enzymatic assay (luciferase-based indirect assay, CellTiter-Glo). It counts as biochemical. The following applies: 0.4 nM CD73, 150 μM AMP, 1 hour at room temperature. The procedure, abridged: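 Residual AMP inhibits luciferase, so luminescence reports CD73 turnover; read with CellTiter-Glo 2.0 plus 1 μM final ATP, 30 min. Reaction used 0.4 nM N-His CD73 (27-549, E. coli), 150 μM AMP, HEPES pH 7.4 with Tween 20, 1 h at room temperature. IC50 fitted by nonlinear regression.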

Another assay concerns the target T2, human CD73 (Homo sapiens, UniProt P21589).
T2 construct: expressed in transfected cells
T2 sequence (P21589 27-549): T1 sequence (P21589 27-549)
Briefly: Inhibitor activity against CD73 in cell based assay (CD73 expressing CHO-K1 cells). To be noted: CHO-K1 cells expressing human CD73, 150 μM AMP, 4 hours of incubation; read-out: CHO-K1 CELL VARIANT: CD73 IC50. The gist of the method:
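Residual supernatant AMP was quantified via CellTiter-Glo luminescence (1 μM ATP added, 30 min, room temperature) after a 4 h exposure of human CD73-expressing CHO-K1 cells to 150 μM AMP plus compound, top final 10 μM, 8 points. IC50 came from nonlinear regression of percent inhibition.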

Results on 24 compounds are retold here after US12509444B2, “Compounds and methods for CD73 modulation and indications therefor” (Plexxikon Inc., priority 2019, dated 2025).

Structures are written as SMILES.

The IC50 is the midpoint of a concentration-inhibition curve.

As to `N#Cc1c(N2CC[C@@H](OC(=O)NC3CCC(F)(F)CC3)C2)cn[nH]c1=O` [P-0145, (R)-1-(5-cyano-6-oxo-1,6-dihydropyridazin-4-yl)pyrrolidin-3-yl (4,4-difluorocyclohexyl)carbamate], the IC50 (in assay [1]; on human CD73) was 0.001 to 10 µM throughout.
Regarding `O=C(NC1CCN(C(=O)NC2CC2)CC1)O[C@@H]1CCN(c2cn[nH]c(=O)c2Cl)C1` [P-0146, (R)-1-(5-chloro-6-oxo-1,6-dihydropyridazin-4-yl)pyrrolidin-3-yl (1-(cyclopropylcarbamoyl)piperidin-4-yl)carbamate], the IC50 (in assay [1]; at human CD73) was 0.001 to 10 µM each time.
On to `O=C(NC1CCN(C(=O)NC2CCCCC2)CC1)O[C@@H]1CCN(c2cn[nH]c(=O)c2Cl)C1` [P-0147, (R)-1-(5-chloro-6-oxo-1,6-dihydropyridazin-4-yl)pyrrolidin-3-yl (1-(cyclohexylcarbamoyl)piperidin-4-yl)carbamate], for which the IC50 (in assay [1]; at human CD73) was 0.001 to 10 µM in each case.
Take `O=C(NC1CCN(C(=O)Nc2ccc(F)cc2)CC1)O[C@@H]1CCN(c2cn[nH]c(=O)c2Cl)C1` [P-0148, (R)-1-(5-chloro-6-oxo-1,6-dihydropyridazin-4-yl)pyrrolidin-3-yl (1-((4-fluorophenyl)carbamoyl)piperidin-4-yl)carbamate]: the IC50 (in assay [1]; at human CD73) was 0.001 to 10 µM each time.
As for `NC(=O)N1CCC(NC(=O)O[C@@H]2CCN(c3cn[nH]c(=O)c3Cl)C2)CC1` [P-0149, (R)-1-(5-chloro-6-oxo-1,6-dihydropyridazin-4-yl)pyrrolidin-3-yl (1-carbamoylpiperidin-4-yl)carbamate], the IC50 (in assay [1]; at human CD73) was 0.001 to 10 µM each time.
For `CS(=O)(=O)N1CCC(NC(=O)O[C@@H]2CCN(c3cn[nH]c(=O)c3Cl)C2)CC1` [P-0150, (R)-1-(5-chloro-6-oxo-1,6-dihydropyridazin-4-yl)pyrrolidin-3-yl (1-(methylsulfonyl)piperidin-4-yl)carbamate], the IC50 (in assay [1]; at human CD73) was 0.001 to 10 µM throughout.
For the compound `N#Cc1c(N2CC[C@@H](OC(=O)NC3CCN(C4CCCC4)CC3)C2)cn[nH]c1=O` [P-0151, (R)-1-(5-cyano-6-oxo-1,6-dihydropyridazin-4-yl)pyrrolidin-3-yl (1-cyclopentylpiperidin-4-yl)carbamate], the IC50 (in assay [1]; at human CD73) was 0.001 to 10 µM each time.
As to `O=C(N[C@H]1CC[C@H](NS(=O)(=O)C2CC2)CC1)O[C@@H]1CCN(c2cn[nH]c(=O)c2Cl)C1` [P-0152, (R)-1-(5-chloro-6-oxo-1,6-dihydropyridazin-4-yl)pyrrolidin-3-yl ((1r,4R)-4-(cyclopropanesulfonamido)cyclohexyl)carbamate], the IC50 (in assay [1]; at human CD73) was 0.001 to 10 µM each time.
As to `O=C(N[C@H]1CC[C@H](NS(=O)(=O)NC2CCCC2)CC1)O[C@@H]1CCN(c2cn[nH]c(=O)c2Cl)C1` [P-0153, (R)-1-(5-chloro-6-oxo-1,6-dihydropyridazin-4-yl)pyrrolidin-3-yl ((1r,4R)-4-((N-cyclopentylsulfamoyl)amino)cyclohexyl)carbamate], the IC50 (in assay [1]; on human CD73) was 0.001 to 10 µM in each case.
Turning to `Cc1c(N2CC[C@@H](OC(=O)NC3CCC(F)(F)C3)C2)cn[nH]c1=O` (stereo partly drawn) [P-0154, (R)-1-(5-methyl-6-oxo-1,6-dihydropyridazin-4-yl)pyrrolidin-3-yl (3,3-difluorocyclopentyl)carbamate], the IC50 (in assay [1]; at human CD73) was 0.001 to 10 µM each time.
Consider `Cn1ncc(N2CC[C@@H](OC(=O)NC3CCCC3)C2)c(Cl)c1=O` [P-0155, (R)-1-(5-chloro-1-methyl-6-oxo-1,6-dihydropyridazin-4-yl)pyrrolidin-3-yl cyclopentylcarbamate], for which the IC50 (in assay [1]; at human CD73) was 0.001 to 10 µM in each case.
On to `NC(=O)N[C@H]1CC[C@H](NC(=O)O[C@@H]2CCN(c3cn[nH]c(=O)c3Cl)C2)CC1` [P-0156, (R)-1-(5-chloro-6-oxo-1,6-dihydropyridazin-4-yl)pyrrolidin-3-yl ((1r,4R)-4-ureidocyclohexyl)carbamate], for which the IC50 (in assay [1]; on human CD73) was 0.001 to 10 µM throughout.
Consider `O=CN[C@H]1CC[C@H](NC(=O)O[C@@H]2CCN(c3cn[nH]c(=O)c3Cl)C2)CC1` [P-0157, (R)-1-(5-chloro-6-oxo-1,6-dihydropyridazin-4-yl)pyrrolidin-3-yl ((1r,4R)-4-formamidocyclohexyl) carbamate], for which the IC50 (in assay [1]; at human CD73) was 0.001 to 10 µM each time.
With `O=C(N[C@H]1CC[C@H](NS(=O)(=O)c2ccccc2)CC1)O[C@@H]1CCN(c2cn[nH]c(=O)c2Cl)C1` [P-0158, (R)-1-(5-chloro-6-oxo-1,6-dihydropyridazin-4-yl)pyrrolidin-3-yl ((1r,4R)-4-(phenylsulfonamido)cyclohexyl)carbamate], the IC50 (in assay [1]; on human CD73) was 0.001 to 10 µM throughout.
As to `NCC(=O)N1CCC(NC(=O)O[C@@H]2CCN(c3cn[nH]c(=O)c3Cl)C2)CC1` [P-0159, (R)-1-(5-chloro-6-oxo-1,6-dihydropyridazin-4-yl)pyrrolidin-3-yl (1-glycylpiperidin-4-yl)carbamate], the IC50 (in assay [1]; on human CD73) was 0.001 to 10 µM throughout.
`CC(C)(C)OC(=O)NCC(=O)N1CCC(NC(=O)O[C@@H]2CCN(c3cn[nH]c(=O)c3Cl)C2)CC1` [P-0160, (R)-1-(5-chloro-6-oxo-1,6-dihydropyridazin-4-yl)pyrrolidin-3-yl (1-((tert-butoxycarbonyl)glycyl)piperidin-4-yl)carbamate]: the IC50 (in assay [1]; at human CD73) was 0.001 to 10 µM throughout.
Regarding `CC(=O)NCC(=O)N1CCC(NC(=O)O[C@@H]2CCN(c3cn[nH]c(=O)c3Cl)C2)CC1` [P-0161, (R)-1-(5-chloro-6-oxo-1,6-dihydropyridazin-4-yl)pyrrolidin-3-yl (1-(acetylglycyl)piperidin-4-yl)carbamate], the IC50 (in assay [1]; at human CD73) was 0.001 to 10 µM each time.
In the case of `CCOC(=O)NCC(=O)N1CCC(NC(=O)O[C@@H]2CCN(c3cn[nH]c(=O)c3Cl)C2)CC1` [P-0162, ethyl (R)-(2-(4-((((1-(5-chloro-6-oxo-1,6-dihydropyridazin-4-yl)pyrrolidin-3-yl)oxy)carbonyl)amino)piperidin-1-yl)-2-oxoethyl) carbamate], the IC50 (in assay [1]; at human CD73) was 0.001 to 10 µM each time.
In the case of `CS(=O)(=O)NCC(=O)N1CCC(NC(=O)O[C@@H]2CCN(c3cn[nH]c(=O)c3Cl)C2)CC1` [P-0163, (R)-1-(5-chloro-6-oxo-1,6-dihydropyridazin-4-yl)pyrrolidin-3-yl (1-((methylsulfonyl)glycyl)piperidin-4-yl)carbamate], the IC50 (in assay [1]; on human CD73) was 0.001 to 10 µM in each case.
For the compound `O=C(CO)N[C@H]1CC[C@H](NC(=O)O[C@@H]2CCN(c3cn[nH]c(=O)c3Cl)C2)CC1` [P-0164, (R)-1-(5-chloro-6-oxo-1,6-dihydropyridazin-4-yl)pyrrolidin-3-yl ((1r,4R)-4-(2-hydroxyacetamido)cyclohexyl) carbamate], the concentration for half-maximal inhibition (IC50) (in assay [1]; on human CD73) was 0.001 to 10 µM each time.
For the compound `CC(=O)N[C@H]1CC[C@H](NC(=O)O[C@@H]2CCN(c3cn[nH]c(=O)c3Cl)C2)CC1` [P-0165, (R)-1-(5-chloro-6-oxo-1,6-dihydropyridazin-4-yl)pyrrolidin-3-yl ((1r,4R)-4-acetamidocyclohexyl)carbamate], the IC50 (in assay [1]; at human CD73) was 0.001 to 10 µM each time.
Consider `N#Cc1c(N2CC[C@@H](OC(=O)NC3CCNCC3)C2)cn[nH]c1=O` [P-0166, (R)-1-(5-cyano-6-oxo-1,6-dihydropyridazin-4-yl)pyrrolidin-3-yl piperidin-4-ylcarbamate], for which the IC50 (in assay [1]; at human CD73) was 0.001 to 10 µM each time.
On to `N[C@H]1C[C@H](NC(=O)O[C@@H]2CCN(c3cn[nH]c(=O)c3Cl)C2)C1` [P-0167, (R)-1-(5-chloro-6-oxo-1,6-dihydropyridazin-4-yl)pyrrolidin-3-yl ((1r,3R)-3-aminocyclobutyl)carbamate], for which the IC50 (in assay [1]; on human CD73) was 0.001 to 10 µM in each case.
As to `O=C(Nc1ccc(F)cc1)N[C@H]1C[C@H](NC(=O)O[C@@H]2CCN(c3cn[nH]c(=O)c3Cl)C2)C1` [P-0168, (R)-1-(5-chloro-6-oxo-1,6-dihydropyridazin-4-yl)pyrrolidin-3-yl ((1r,3R)-3-(3-(4-fluorophenyl)ureido)cyclobutyl) carbamate], the IC50 (in assay [1]; at human CD73) was 0.001 to 10 µM each time.
